Measurements published in ChEMBL document CHEMBL1155516, “Biochemical and structural analysis of the binding determinants of a vascular endothelial growth factor receptor peptidic antagonist” (J Med Chem, 2010).
Calls of active or inactive are those of the source. No cut-off for these calls is given here. Where a SMILES comes first, the peptide text is derived from it. Bridges are numbered along the chain shown (N, C = ends).

Experiments:
[1] = molecular target: Vascular endothelial growth factor receptor 2 (Homo sapiens) (UniProt P35968); test: Inhibition of VEGFR2 phosphorylation in VEGF165-stimulated HUVEC at 100 uM treated for 1 hr before VEGF165 challenge measured after 5 mins by Western blot analysis; assay type: cell-based
Sequence of Vascular endothelial growth factor receptor 2 (Homo sapiens) (P35968 whole entry, the tested form may be a part): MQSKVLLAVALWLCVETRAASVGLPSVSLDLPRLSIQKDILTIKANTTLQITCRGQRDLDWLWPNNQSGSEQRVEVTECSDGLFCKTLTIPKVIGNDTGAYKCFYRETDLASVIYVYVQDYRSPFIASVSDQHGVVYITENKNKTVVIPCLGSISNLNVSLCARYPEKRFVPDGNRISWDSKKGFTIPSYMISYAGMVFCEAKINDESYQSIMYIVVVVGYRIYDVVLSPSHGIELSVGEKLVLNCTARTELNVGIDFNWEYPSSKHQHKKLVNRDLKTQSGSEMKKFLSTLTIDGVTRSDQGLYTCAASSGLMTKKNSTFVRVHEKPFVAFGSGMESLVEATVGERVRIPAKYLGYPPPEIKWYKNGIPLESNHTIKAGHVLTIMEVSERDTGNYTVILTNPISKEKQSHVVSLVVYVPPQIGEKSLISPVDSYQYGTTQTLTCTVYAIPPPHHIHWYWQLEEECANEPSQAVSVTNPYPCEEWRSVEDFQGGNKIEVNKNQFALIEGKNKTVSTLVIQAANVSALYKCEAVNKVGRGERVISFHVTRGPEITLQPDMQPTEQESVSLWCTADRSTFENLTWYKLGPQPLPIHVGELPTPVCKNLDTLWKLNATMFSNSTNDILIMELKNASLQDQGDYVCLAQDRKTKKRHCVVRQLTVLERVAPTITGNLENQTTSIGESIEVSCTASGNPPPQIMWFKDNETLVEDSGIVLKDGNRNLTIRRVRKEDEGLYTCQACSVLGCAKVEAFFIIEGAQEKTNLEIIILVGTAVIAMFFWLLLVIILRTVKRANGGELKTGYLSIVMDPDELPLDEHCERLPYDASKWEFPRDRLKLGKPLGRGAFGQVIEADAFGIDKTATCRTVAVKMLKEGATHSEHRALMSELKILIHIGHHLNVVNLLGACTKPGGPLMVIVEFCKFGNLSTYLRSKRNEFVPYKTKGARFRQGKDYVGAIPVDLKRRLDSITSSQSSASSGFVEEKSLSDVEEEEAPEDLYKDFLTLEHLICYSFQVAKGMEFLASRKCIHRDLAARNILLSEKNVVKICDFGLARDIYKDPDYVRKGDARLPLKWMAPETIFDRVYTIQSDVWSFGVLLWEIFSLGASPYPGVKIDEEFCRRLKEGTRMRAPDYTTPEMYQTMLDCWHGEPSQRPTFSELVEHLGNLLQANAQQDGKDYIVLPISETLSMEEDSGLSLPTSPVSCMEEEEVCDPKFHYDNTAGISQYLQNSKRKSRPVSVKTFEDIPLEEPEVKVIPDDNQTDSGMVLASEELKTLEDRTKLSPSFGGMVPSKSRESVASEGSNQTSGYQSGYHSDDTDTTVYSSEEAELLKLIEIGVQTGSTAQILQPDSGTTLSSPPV

[2] = molecular target: Vascular endothelial growth factor receptor 2 (Homo sapiens) (UniProt P35968); test: Inhibition of VEGFR2 phosphorylation in VEGF165-stimulated HUVEC treated for 1 hr before VEGF165 challenge measured after 5 mins by Western blot analysis; assay type: cell-based
[3] = tested on: HUVEC; conditions: Homo sapiens, 10 uM
[4] = tested on: HUVEC; conditions: Homo sapiens, 100 uM
Description: Inhibition of VEGFR in HUVEC assessed as inhibition of VEGF165-induced ERK1/2 phosphorylation at 100 uM treated for 1 hr before VEGF165 challenge measured after 15 mins by Western blot analysis

[5] = molecular target: Vascular endothelial growth factor receptor 2 (Homo sapiens) (UniProt P35968); test: Inhibition of VEGFR2 phosphorylation in VEGF165-stimulated HUVEC at 10 uM treated for 1 hr before VEGF165 challenge measured after 5 mins by Western blot analysis; assay type: cell-based
[6] = molecular target: Vascular endothelial growth factor receptor 2 (Homo sapiens) (UniProt P35968); test: Inhibition of VEGFR2 phosphorylation in VEGF165-stimulated HUVEC at 33 uM treated for 1 hr before VEGF165 challenge measured after 5 mins by Western blot analysis; assay type: cell-based
[7] = tested on: HUVEC; conditions: Homo sapiens, 3 uM
Description: Inhibition of VEGFR in HUVEC assessed as inhibition of VEGF165-induced ERK1/2 phosphorylation at 3 uM treated for 1 hr before VEGF165 challenge measured after 15 mins by Western blot analysis

[8] = molecular target: Vascular endothelial growth factor receptor 2 (Homo sapiens) (UniProt P35968); test: Inhibition of VEGFR2 phosphorylation in VEGF165-stimulated HUVEC at 3 uM treated for 1 hr before VEGF165 challenge measured after 5 mins by Western blot analysis
[9] = tested on: HUVEC; conditions: Homo sapiens, 33 uM
Description: Inhibition of VEGFR in HUVEC assessed as inhibition of VEGF165-induced ERK1/2 phosphorylation at 33 uM treated for 1 hr before VEGF165 challenge measured after 15 mins by Western blot analysis

[10] = molecular target: Vascular endothelial growth factor receptor 2 (Homo sapiens) (UniProt P35968); test: Binding affinity to human recombinant VEGFR2 extracellular domain immobilized in CNBr-activated sepharose at 25 nmol after 5 mins by pull-down assay

CC(C)C[C@@H]1NC(=O)CNC(=O)[C@H](CCC(=O)O)NC(=O)[C@H](CC(=O)O)NC(=O)[C@H](Cc2ccc(O)cc2)NC(=O)[C@H](C)NC(=O)CC[C@@H](C(N)=O)NC(=O)[C@H](CCC(=O)O)NC1=O (AYDEGLEE-NH2; lactam N-8)
inhibition [1]: inactive

CC(C)C[C@@H]1NC(=O)CNC(=O)[C@H](CCC(=O)O)NC(=O)[C@H](CC(=O)O)NC(=O)[C@H](C)NC(=O)[C@H](Cc2ccc(O)cc2)NC(=O)CC[C@@H](C(N)=O)NC(=O)[C@H](CCC(=O)O)NC1=O (YADEGLEE-NH2; lactam N-8)
inhibition [1]: inactive

CC(C)C[C@@H]1NC(=O)CNC(=O)[C@H](CCC(=O)O)NC(=O)[C@H](CC(=O)O)NC(=O)[C@H](CCCCN)NC(=O)[C@H](Cc2ccc(O)cc2)NC(=O)CC[C@@H](C(N)=O)NC(=O)[C@H](CCC(=O)O)NC1=O (YKDEGLEE-NH2; lactam N-8)
inhibition [1]: Active

CC(C)C[C@@H]1NC(=O)CNC(=O)[C@H](C)NC(=O)[C@H](CC(=O)O)NC(=O)[C@H](Cc2ccc(O)cc2)NC(=O)[C@H](Cc2ccc(O)cc2)NC(=O)CC[C@@H](C(N)=O)NC(=O)[C@H](CCC(=O)O)NC1=O (YYDAGLEE-NH2; lactam N-8)
inhibition [1]: inactive

C[C@@H]1NC(=O)CNC(=O)[C@H](CCC(=O)O)NC(=O)[C@H](CC(=O)O)NC(=O)[C@H](Cc2ccc(O)cc2)NC(=O)[C@H](Cc2ccc(O)cc2)NC(=O)CC[C@@H](C(N)=O)NC(=O)[C@H](CCC(=O)O)NC1=O (YYDEGAEE-NH2; lactam N-8)
inhibition [1]: inactive

CC(C)C[C@@H]1NC(=O)CNC(=O)[C@H](CCC(=O)O)NC(=O)[C@H](CC(=O)O)NC(=O)[C@H](Cc2ccc(O)cc2)NC(=O)[C@H](Cc2ccc(O)cc2)NC(=O)CC[C@@H](C(N)=O)NC(=O)[C@H](C)NC1=O (YYDEGLAE-NH2; lactam N-8)
inhibition [1]: inactive

CC(C)C[C@@H]1NC(=O)CNC(=O)[C@H](CCC(=O)O)NC(=O)[C@H](CC(=O)O)NC(=O)[C@H](Cc2ccc(O)cc2)NC(=O)[C@H](Cc2ccc(O)cc2)NC(=O)CC[C@@H](C(N)=O)NC(=O)[C@H](CCC(=O)O)NC1=O (YYDEGLEE-NH2; lactam N-8)
inhibition [2]: Dose-dependent effect | inhibition [3]: Active | inhibition [4]: Active | inhibition [5]: Active | inhibition [1]: Active | inhibition [6]: Active | inhibition [7]: inactive | inhibition [8]: inactive | inhibition [9]: Active

CC(C)C[C@@H]1NC(=O)[C@H](CCCCN)NC(=O)[C@H](CCC(=O)O)NC(=O)[C@H](CC(=O)O)NC(=O)[C@H](Cc2ccc(O)cc2)NC(=O)[C@H](Cc2ccc(O)cc2)NC(=O)CC[C@@H](C(N)=O)NC(=O)[C@H](CCC(=O)O)NC1=O (YYDEKLEE-NH2; lactam N-8)
inhibition [1]: Active

CC(C)C[C@@H]1NC(=O)CNC(=O)[C@H](CCC(=O)O)NC(=O)[C@H](CCCCN)NC(=O)[C@H](Cc2ccc(O)cc2)NC(=O)[C@H](Cc2ccc(O)cc2)NC(=O)CC[C@@H](C(N)=O)NC(=O)[C@H](CCC(=O)O)NC1=O (YYKEGLEE-NH2; lactam N-8)
inhibition [1]: Active | Activity [10]: inactive
